Laboratory results from US9708336B2, “Metallo-beta-lactamase inhibitors” (priority 2014, dated 2017).
pIC50: −log10 of the molar value. Like-named read-outs stand apart in the source and are kept apart here.

What was measured:
VIM-1 = VIM-1 (Pseudomonas aeruginosa (strain ATCC 15692 / DSM 22644 / CIP 104116 / JCM 14847 / LMG 12228 / 1C / PRS 101 / PAO1), UniProt A0A0F7KYQ8); assay: Enzyme activity: determination of IC50, fluorescence assay with CCF2-FA substrate (VIM-1); assay type: biochemical
IMP-1 = IMP-1 (Serratia marcescens, UniProt P52699); assay: biochemical; assay type: biochemical; conditions: read-out: IMP-1 IC50
[1] = system: Escherichia coli expressing NDM-1 (CLB30016); assay: Antibiotic potentiation activity: synergistic concentration (MITC95) with imipenem, OD600 growth; assay type: cell-based
How it was run: (§1)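 Spectrophotometric growth readings were taken following 22–24 h at 35 °C. Before that, organisms in 1.1× CAMHB were mixed with imipenem, used at 4 μg/ml in assay, and test compound.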

[2] = system: Serratia marcescens expressing IMP-1 (CL5741); assay: as above; assay type: cell-based
How it was run: as §1

[3] = system: Klebsiella pneumoniae expressing VIM-1 (IHMA599644); assay: as above; assay type: cell-based
How it was run: as §1

NDM-1 = NDM-1 (Klebsiella pneumoniae, UniProt C7C422); assay: biochemical; assay type: biochemical; conditions: read-out: NDM-1 IC50
[4] = VIM-1 enzyme, CCF2-FA substrate, read-out: VIM-1 IC50
[5] = IMP-1 enzyme, CCF2-FA substrate
[6] = (CLB30016, NDM-1), 95% growth inhibition
[7] = Serratia marcescens CL5741 (IMP-1), 95% growth inhibition
[8] = Klebsiella pneumoniae IHMA599644 (VIM-1), 95% growth inhibition
[9] = NDM-1 enzyme, CCF2-FA substrate
[10] = fluorescence assay with CCF2-FA substrate, read-out: VIM-1 IC50
[11] = fluorescence assay with CCF2-FA substrate
[12] = concentration giving 95% inhibition of bacterial growth
[13] = IMP-1 enzyme, CCF2-FA fluorescence assay
[14] = Escherichia coli expressing NDM-1 (CLB30016), 95% growth inhibition
[15] = Serratia marcescens expressing IMP-1 (CL5741), 95% growth inhibition
[16] = Klebsiella pneumoniae expressing VIM-1 (IHMA599644), 95% growth inhibition
[17] = NDM-1 enzyme, CCF2-FA fluorescence assay
[18] = VIM-1 enzyme, CCF2-FA fluorescence assay, read-out: VIM-1 IC50

Sequence of NDM-1 (C7C422 whole entry, looked up, species assumed): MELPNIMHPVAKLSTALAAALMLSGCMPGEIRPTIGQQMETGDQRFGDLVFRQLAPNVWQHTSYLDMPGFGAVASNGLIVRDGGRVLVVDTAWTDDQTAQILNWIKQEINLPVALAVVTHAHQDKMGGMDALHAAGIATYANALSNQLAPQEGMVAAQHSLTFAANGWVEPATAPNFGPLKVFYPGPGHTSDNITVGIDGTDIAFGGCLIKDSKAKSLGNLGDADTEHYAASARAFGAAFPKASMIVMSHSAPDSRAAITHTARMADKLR
Sequence of IMP-1 (P52699 whole entry, looked up): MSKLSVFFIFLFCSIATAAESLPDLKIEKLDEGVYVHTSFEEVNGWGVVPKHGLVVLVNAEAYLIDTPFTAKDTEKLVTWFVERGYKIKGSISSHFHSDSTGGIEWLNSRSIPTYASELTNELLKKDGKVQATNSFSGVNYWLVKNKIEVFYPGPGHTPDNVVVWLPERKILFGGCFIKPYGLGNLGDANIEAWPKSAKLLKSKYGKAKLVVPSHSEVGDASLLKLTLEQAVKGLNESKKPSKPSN

NS(=O)(=O)c1c(C(F)(F)F)ccc([C@H]2CC[C@H](NCC3CCNCC3)CC2)c1-c1nnn[nH]1 [Example 680, 3-{4-[(piperidin-4-ylmethyl)amino]cyclohex-yl}-2-(1H-tetrazol-5-yl)-6-(trifluoromethyl)benzene sulfonamide]
pIC50 (VIM-1; [4]): 8.29
pIC50 (IMP-1; [5]): 7.06
Escherichia coli MITC95 [1, 6]: 1.563 µM
Serratia marcescens MITC95 [2, 7]: 3.125 µM
Klebsiella pneumoniae MITC95 [3, 8]: 6.25 µM
pIC50 (NDM-1; [9]): 7.38

NC1(CNC2CCC(c3ccc(C(F)(F)F)c(S(N)(=O)=O)c3-c3nnn[nH]3)CC2)CC1 (stereo not drawn) [Example 830, 3-[4-[(1-aminocyclopropyl)methylamino]cyclohexyl]-2-(1H-tetrazol-5-yl)-6-(trifluoromethyl)benzenesulfonamide]
pIC50 (VIM-1; [10]): 9.61
pIC50 (IMP-1; [11]): 8.42
Escherichia coli MITC95 ([1]; CLB30016 (NDM-1), 95% inhibition of bacterial growth): 0.25 µM
Serratia marcescens MITC95 ([2]; CL5741 (IMP-1), 95% inhibition of bacterial growth): 0.724 µM
Klebsiella pneumoniae MITC95 ([3]; IHMA599644 (VIM-1), 95% inhibition of bacterial growth): 0.8542 µM
pIC50 (NDM-1; [11]): 8.71

N#Cc1cncc(-c2cccc(S(N)(=O)=O)c2-c2nnn[nH]2)c1 [Example 136, 3-(5-cyanopyridin-3-yl)-2-(1H-tetrazol-5-yl)benzenesulfonamide]
pIC50 (VIM-1; [10]): 6.82
pIC50 (IMP-1; [11]): 5.77
Escherichia coli expressing NDM-1 (CLB 30016) MITC95 [1, 12]: 1.563 µM
Serratia marcescens expressing IMP-1 (CL5741) MITC95 [2, 12]: 25 µM
Klebsiella pneumoniae expressing VIM-1 (IHMA 599644) MITC95 [3, 12]: 37.5 µM
pIC50 (NDM-1; [11]): 7.61

Nc1ccnc2ccc(-c3cccc(S(N)(=O)=O)c3-c3nnn[nH]3)cc12 [Example 401, 3-(4-amino-6-quinolyl)-2-(1H-tetrazol-5-yl)benzenesulfonamide]
pIC50 (VIM-1; VIM-1 IC50, VIM-1 enzyme, CCF2-FA fluorescence assay): 8.12
pIC50 (IMP-1; [13]): 6.19
Escherichia coli MITC95 [1, 14]: 0.09375 µM
Serratia marcescens MITC95 [2, 15]: 6.25 µM
Klebsiella pneumoniae MITC95 [3, 16]: 0.8906 µM
pIC50 (NDM-1; [17]): 8.14

Nc1ncc(C#Cc2ccc(C(F)(F)F)c(S(N)(=O)=O)c2-c2nn[nH]n2)cc1CO [Example 507, 3-((6-Amino-5-(hydroxymethyl)pyridin-3-yl)ethynyl)-2-(2H-tetrazol-5-yl)-6-(trifluoromethyl)benzenesulfonamide]
pIC50 (VIM-1; VIM-1 IC50, VIM-1 enzyme, CCF2-FA substrate): 8.49
pIC50 (IMP-1; [5]): 8.37
Escherichia coli MITC95 [1, 6]: 4.688 µM
Serratia marcescens MITC95 [2, 7]: 0.5859 µM
Klebsiella pneumoniae MITC95 [3, 8]: 25 µM
pIC50 (NDM-1; [9]): 7.94

C[C@@H](O)[C@H](NCc1ccc(-c2cccc(S(N)(=O)=O)c2-c2nnn[nH]2)cc1)C(=O)O [Example 357, N-{[3′-sulfamoyl-2′-(1H-tetrazol-5-yl)biphenyl-4-yl]methyl}-L-threonine]
pIC50 (VIM-1; [18]): 6.54
pIC50 (IMP-1; [13]): 6.74
Escherichia coli MITC95 [1, 14]: 3.125 µM
Serratia marcescens MITC95 [2, 15]: 4.688 µM
Klebsiella pneumoniae MITC95 [3, 16]: 25 µM
pIC50 (NDM-1; [17]): 7.90

NS(=O)(=O)c1cccc(-c2ccc(CN3CC(O)C(F)C3)cc2)c1-c1nnn[nH]1 (stereo not drawn) [Example 396, 4′-[(3-fluoro-4-hydroxypyrrolidin-1-yl)methyl]-2-(1H-tetrazol-5-yl)biphenyl-3-sulfonamide]
pIC50 (VIM-1; [18]): 6.74
pIC50 (IMP-1; [13]): 7.65
Escherichia coli MITC95 [1, 14]: 1.172 µM
Serratia marcescens MITC95 [2, 15]: 1.172 µM
Klebsiella pneumoniae MITC95 [3, 16]: 100 µM
pIC50 (NDM-1; [17]): 8.49

NS(=O)(=O)c1c(CC(F)(F)F)ccc(-c2ccc(C3CCNCC3)cc2)c1-c1nn[nH]n1 [Example 458, 4′-(piperidin-4-yl)-2-(2H-tetrazol-5-yl)-4-(2,2,2-trifluoroethyl)-[1,1′-biphenyl]-3-sulfonamide]
pIC50 (VIM-1; [18]): 8.67
pIC50 (IMP-1; [13]): 8.62
Escherichia coli MITC95 [1, 14]: 3.125 µM
Serratia marcescens MITC95 [2, 15]: 0.125 µM
Klebsiella pneumoniae MITC95 [3, 16]: 3.125 µM
pIC50 (NDM-1; [17]): 7.65

Nc1nc2c(-c3ccc(C(F)CO)c(S(N)(=O)=O)c3-c3nn[nH]n3)cccc2s1 (stereo not drawn) [Example 532, 3-(2-Aminobenzo[d]thiazol-4-yl)-6-(1-fluoro-2-hydroxyethyl)-2-(2H-tetrazol-5-yl)benzenesulfonamide]
pIC50 (VIM-1; [4]): 8.40
pIC50 (IMP-1; [5]): 8.19
Escherichia coli MITC95 [1, 6]: 12.5 µM
Serratia marcescens MITC95 [2, 7]: 12.5 µM
Klebsiella pneumoniae MITC95 [3, 8]: 12.5 µM
pIC50 (NDM-1; [9]): 9.22
